{
  "source": "paper PMC5504036",
  "about": "“A tricyclic antidepressant, amoxapine, reduces amyloid-β generation through multiple serotonin receptor 6-mediated targets” (Scientific Reports, 2017)",
  "molecular_target": "T1, serotonin receptor 6 (HTR6) (Homo sapiens, UniProt P50406)",
  "T1 construct": "human HTR6 expressed by lentivirus in SK-N-SH cells",
  "T1 sequence (P50406 whole entry)": "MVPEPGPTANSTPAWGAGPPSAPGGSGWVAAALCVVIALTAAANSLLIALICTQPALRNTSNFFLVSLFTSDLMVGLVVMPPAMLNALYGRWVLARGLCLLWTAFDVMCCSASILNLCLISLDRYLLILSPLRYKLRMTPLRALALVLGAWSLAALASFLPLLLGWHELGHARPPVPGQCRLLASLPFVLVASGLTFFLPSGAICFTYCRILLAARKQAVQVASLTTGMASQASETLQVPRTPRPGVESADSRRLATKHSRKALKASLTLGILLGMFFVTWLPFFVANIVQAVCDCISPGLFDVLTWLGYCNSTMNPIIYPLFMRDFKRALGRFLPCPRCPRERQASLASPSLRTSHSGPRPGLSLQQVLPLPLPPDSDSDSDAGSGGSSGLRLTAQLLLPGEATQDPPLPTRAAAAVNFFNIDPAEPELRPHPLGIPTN",
  "experiment": "GloSensor cAMP assay (agonist) in SK-N-SH cells infected with HTR6 lentivirus",
  "format": "cell-based",
  "data": [
    {"smiles": "Cc1[nH]c2ccc(Cl)cc2c1CCN(C)C", "note": "[ST1936]", "values": [
      {"measurement": "EC50", "value": 1.7, "unit": "nM"}
    ]}
  ]
}
